These are literature values, as cited in patent US12208061B2 (EXORAO LIFE SCIENCE S.R.L., priority 2019, dated 2025).

Like-named read-outs stand apart in the source and are kept apart here.

In data set [1] the test system is gram-negative aerobic pathogens including Pseudomonas aeruginosa. Particulars: in vitro.
For data set [2], the system named is gram-positive bacteria or anaerobes. Particulars: against gram-positive bacteria or anaerobes.
The conditions of data set [3]: solution for intravenous infusion.

Consider `C[C@H]1[C@H](NC(=O)/C(=N\OC(C)(C)C(=O)O)c2csc(N)n2)C(=O)N1S(=O)(=O)O` [Aztreonam, (Z)-2-[[[(2-amino-4-thiazolyl)[[(2S,3S)-2-methyl-4-oxo-1-sulfo-3-azetidinyl]carbamoyl]methylene]amino]oxy]-2-methylpropionic acid], for which, in data set [1], the “pH range over which antimicrobial activity is maintained” value is 6 to 8. The antimicrobial activity entry in data set [2] is on record as “no useful activity”. Moreover, the entries for the “time within which reconstituted solution should be used” value in data set [3] (controlled room temperature) and in data set [3] (refrigerated at 2° C. to 8° C.) were not above 48 h and “within seven days”, respectively.
